Experimental data published in patent US20100209496A1, “LIQUID AND SEMI-SOLID PHARMACEUTICAL FORMULATIONS FOR ORAL ADMINISTRATION OF A SUBSTITUTED AMIDE” (priority 2006, published 2010).

Experiments:
[1] = Bioavailability when dosed as a crystalline solid (dogs); format: in vivo
[2] = Compound I Form I solubility in various liquid vehicles; format: physicochemical; conditions: aqueous
[3] = Bioavailability when dosed as a crystalline solid (rats); format: in vivo
[4] = Bioavailability (drug plasma levels) from liquid-filled capsule dosage form; format: in vivo; conditions: compound in solution in liquid and semi-solid excipients, versus crystalline solid

3-[(3aR,4R,5S,7aS)-5-{(1R)-1-[3,5-bis(Trifluoromethyl)phenyl]ethoxy}-4-(4-fluorophenyl)-octahydro-2H-isoindol-2-yl]cyclopent-2-en-1-one [Compound I]
bioavailability [1]: poorly bioavailable | aqueous solubility [2]: < 0.2 µg/mL | bioavailability [3]: poorly bioavailable | bioavailability [4]: increased dramatically
